Results: patent US5840684A, “Glycopeptide antibiotic derivatives” (Eli Lilly and Company, priority 1995, dated 1998)
Converted amounts (≈) assume the structure as drawn.

How the values were obtained:
[1] = test system: Streptococcus pneumoniae; test: mouse protection, experimentally-induced infection; type: in vivo; details: mice infected with Streptococcus pneumoniae, two doses
[2] = test system: Staphylococcus aureus SA1199A; test: broth micro-dilution MIC; type: cell-based
Description: (§1) The MIC's were determined using a standard broth micro-dilution assay.

[3] = test system: Staphylococcus aureus X400; test: broth micro-dilution MIC; type: cell-based
Description: as §1

[4] = test system: Staphylococcus aureus 491; test: broth micro-dilution MIC; type: cell-based
Description: as §1

[5] = test system: Streptococcus pyogenes C203; test: broth micro-dilution MIC; type: cell-based
Description: as §1

[6] = test system: Staphylococcus aureus X778; test: broth micro-dilution MIC; type: cell-based
Description: as §1

[7] = test system: Staphylococcus aureus 489; test: broth micro-dilution MIC; type: cell-based
Description: as §1

[8] = test system: Entercoccus faecium 180-1; test: broth micro-dilution MIC; type: cell-based
Description: as §1

[9] = test system: Entercoccus faecium 276; test: broth micro-dilution MIC; type: cell-based
Description: as §1

[10] = test system: Streptococcus pyogenes; test: mouse protection, experimentally-induced infection; type: in vivo; details: mice infected with Streptococcus pyogenes, two doses
[11] = test system: Stapylococcus aureus; test: mouse protection, experimentally-induced infection; type: in vivo; details: mice infected with Stapylococcus aureus, two doses
[12] = test system: Entercoccus faecium 2041; test: broth micro-dilution MIC; type: cell-based; details: Entercoccus faecium 2041
Description: (§2) The formula I compounds have in vitro and in vivo activity against Gram-positive pathogenic bacteria. The MIC's were determined using a standard broth micro-dilution assay.

[13] = test system: Entercoccus faecium 180; test: broth micro-dilution MIC; type: cell-based; details: Entercoccus faecium 180
Description: as §2

[14] = test system: Enterococcus gallinarum 245; test: broth micro-dilution MIC; type: cell-based; details: Enterococcus gallinarum 245
Description: as §2

[15] = test system: Staphylococcus epidermidis 270; test: broth micro-dilution MIC; type: cell-based
Description: as §2

[16] = test system: vancomycin-resistant enterococci; test: broth micro-dilution, mean geometric MIC; type: cell-based, Enterococcus faecium and Enterococcus faecalis; details: enterococci, 24-hour incubation
[17] = test system: vancomycin-susceptible enterococci; test: broth micro-dilution, mean geometric MIC; type: cell-based, Enterococcus faecium and Enterococcus faecalis; details: enterococci, 24-hour incubation
[18] = test system: Leuconostoc citreum; test: agar dilution MIC, lactic acid bacteria; type: cell-based; details: brain-heart infusion agar
[19] = test system: Leuconostoc pseudomesenteroides; test: agar dilution MIC, lactic acid bacteria; type: cell-based; details: brain-heart infusion agar
[20] = test system: Staphylococcus aureus SA1199B; type: cell-based
Description: as §1

[21] = test system: Staphylococcus aureus S13E; type: cell-based
Description: as §1

[22] = test system: Staphylococcus aureus SA1199; test: broth micro-dilution MIC; type: cell-based
Description: as §1

[23] = test system: Staphylococcus aureus 447; test: broth micro-dilution MIC; type: cell-based
Description: as §1

[24] = test system: Staphylococcus haemolyticus 415; test: broth micro-dilution MIC; type: cell-based
Description: as §2

[25] = test system: Streptococcus pneumoniae P1; test: broth micro-dilution MIC; type: cell-based
Description: as §2

[26] = test system: Staphylococcus haemolyticus 105; test: broth micro-dilution MIC; type: cell-based
Description: as §2

[27] = test system: Leuconostoc mesenteroides; test: agar dilution MIC, lactic acid bacteria; type: cell-based; details: Leuconostoc mesenteroides (mean of 4), brain-heart infusion agar
[28] = test system: Pediococcus acidilacti; test: agar dilution MIC, lactic acid bacteria; type: cell-based; details: Pediococcus acidilacti (mean of 10), brain-heart infusion agar
[29] = test system: Pediococcus pentosaceus; test: agar dilution MIC, lactic acid bacteria; type: cell-based; details: Pediococcus pentosaceus (mean of 2), brain-heart infusion agar
[30] = test system: Staphylococcus aureus 446; test: broth micro-dilution MIC; type: cell-based
Description: as §1

| SMILES | ED50 [1] | MIC [2] [µg/mL] | MIC [5] [µg/mL] | MIC [6] [µg/mL] | MIC [7] [µg/mL] | MIC [8] [µg/mL] | MIC [9] [µg/mL] | ED50 [10] [mg/kg/2] | ED50 [11] [mg/kg/2] | MIC [12] [µg/mL] | MIC [13] [µg/mL] | MIC [14] [µg/mL] | MIC [15] [µg/mL] | mean geometric MIC, Vancomycin Resistant Strains [16] [µg/mL] | mean geometric MIC, Vancomycin Sensitive Strains [17] [µg/mL] | MIC [21] [µg/mL] | MIC [22] [µg/mL] | MIC [23] [µg/mL] | MIC [24] [µg/mL] | MIC [25] [µg/mL] | further results |
| --- | --- | --- | --- | --- | --- | --- | --- | --- | --- | --- | --- | --- | --- | --- | --- | --- | --- | --- | --- | --- | --- |
| CCCCCc1ccc(-c2ccc(CNC3(C)CC(OC4C(Oc5c6cc7cc5Oc5ccc(cc5Cl)C(OC5CC(C)(N)C(O)C(C)O5)C5NC(=O)C(NC(=O)C7NC(=O)C(CC(N)=O)NC(=O)C(NC(=O)C(CC(C)C)NC)C(O)c7ccc(c(Cl)c7)O6)c6ccc(O)c(c6)-c6c(O)cc(O)cc6C(C(=O)O)NC5=O)OC(CO)C(O)C4O)OC(C)C3O)cc2)cc1 (centres unmarked) [Compound 22] | > .05 mg/kg/2 | 4 (≈ 2.19 µM) | ≤ 0.06 | 8 (≈ 4.37 µM) | 8 (≈ 4.37 µM) | ≤ 0.06 | 4 (≈ 2.19 µM) | > 0.5 | 0.049 | 2 (≈ 1.09 µM) | 1 (≈ 0.547 µM) | 1 (≈ 0.547 µM) | 4 (≈ 2.19 µM) | 1.0 | 1.5 | – | – | – | – | – | MIC [3]: 8 µg/mL (≈ 4.37 µM); MIC [4]: 8 µg/mL (≈ 4.37 µM) |
| CNC(CC(C)C)C(=O)NC1C(=O)NC(CC(N)=O)C(=O)NC2C(=O)NC3C(=O)NC(C(=O)NC(C(=O)O)c4cc(O)cc(O)c4-c4cc3ccc4O)C(OC3CC(C)(N)C(O)C(C)O3)c3ccc(c(Cl)c3)Oc3cc2cc(c3OC2OC(CO)C(O)C(O)C2OC2CC(C)(NCc3cc(OCc4ccccc4)ccc3OC)C(O)C(C)O2)Oc2ccc(cc2Cl)C1O (centres unmarked) [Compound 51] | 0.036 mg/kg/2 | ≤ 0.06 | – | 0.5 (≈ 0.275 µM) | ≤ 0.06 | ≤ 0.06 | ≤ 0.06 | 0.057 | 0.16 | ≤ 0.06 | 0.5 (≈ 0.275 µM) | – | 0.5 (≈ 0.275 µM) | 0.84 | 0.22 | 0.5 (≈ 0.275 µM) | 0.5 (≈ 0.275 µM) | 0.5 (≈ 0.275 µM) | 1 (≈ 0.55 µM) | ≤ 0.06 | MIC [18]: > 128 µg/mL; MIC [19]: > 128 µg/mL; MIC [20]: 1 µg/mL (≈ 0.55 µM); MIC [3]: ≤ 0.06 µg/mL; MIC [26]: 0.5 µg/mL (≈ 0.275 µM); MIC [27]: 76 µg/mL (≈ 41.8 µM); MIC [28]: 87 µg/mL (≈ 47.8 µM); MIC [29]: 91 µg/mL (≈ 50 µM) |
| CNC(CC(C)C)C(=O)NC1C(=O)NC(CC(N)=O)C(=O)NC2C(=O)NC3C(=O)NC(C(=O)NC(C(=O)O)c4cc(O)cc(O)c4-c4cc3ccc4O)C(OC3CC(C)(N)C(O)C(C)O3)c3ccc(c(Cl)c3)Oc3cc2cc(c3OC2OC(CO)C(O)C(O)C2OC2CC(C)(NCc3ccc(OCc4ccccc4)c(OC)c3)C(O)C(C)O2)Oc2ccc(cc2Cl)C1O (centres unmarked) [Compound 52] | 0.074 mg/kg/2 | ≤ 0.06 | ≤ 0.06 | 0.5 (≈ 0.275 µM) | 0.5 (≈ 0.275 µM) | ≤ 0.06 | 0.125 (≈ 0.0687 µM) | 0.046 | 0.052 | 0.5 (≈ 0.275 µM) | 2 (≈ 1.1 µM) | 1 (≈ 0.55 µM) | 0.5 (≈ 0.275 µM) | 0.59 | 0.11 | 0.5 (≈ 0.275 µM) | 2 (≈ 1.1 µM) | ≤ 0.06 | 1 (≈ 0.55 µM) | ≤ 0.06 | MIC [18]: > 128 µg/mL; MIC [20]: 2 µg/mL (≈ 1.1 µM); MIC [3]: ≤ 0.06 µg/mL; MIC [30]: ≤ 0.06 µg/mL; MIC [26]: 0.5 µg/mL (≈ 0.275 µM); MIC [27]: 76 µg/mL (≈ 41.8 µM); MIC [28]: 55 µg/mL (≈ 30.2 µM) |
| CNC(CC(C)C)C(=O)NC1C(=O)NC(CC(N)=O)C(=O)NC2C(=O)NC3C(=O)NC(C(=O)NC(C(=O)O)c4cc(O)cc(O)c4-c4cc3ccc4O)C(OC3CC(C)(N)C(O)C(C)O3)c3ccc(c(Cl)c3)Oc3cc2cc(c3OC2OC(CO)C(O)C(O)C2OC2CC(C)(NCc3ccc(OCc4ccccc4)c(OCc4ccccc4)c3)C(O)C(C)O2)Oc2ccc(cc2Cl)C1O (centres unmarked) [Compound 53] | 0.071 mg/kg/2 | – | ≤ 0.06 | 2 (≈ 1.06 µM) | – | 2 (≈ 1.06 µM) | 8 (≈ 4.22 µM) | 0.16 | 0.077 | 1 (≈ 0.528 µM) | 1 (≈ 0.528 µM) | 2 (≈ 1.06 µM) | 2 (≈ 1.06 µM) | 0.35 | 0.25 | 2 (≈ 1.06 µM) | 2 (≈ 1.06 µM) | 4 (≈ 2.11 µM) | 2 (≈ 1.06 µM) | ≤ 0.06 | MIC [20]: 2 µg/mL (≈ 1.06 µM); MIC [4]: 2 µg/mL (≈ 1.06 µM); MIC [30]: 2 µg/mL (≈ 1.06 µM); MIC [26]: 2 µg/mL (≈ 1.06 µM) |
| CNC(CC(C)C)C(=O)NC1C(=O)NC(CC(N)=O)C(=O)NC2C(=O)NC3C(=O)NC(C(=O)NC(C(=O)O)c4cc(O)cc(O)c4-c4cc3ccc4O)C(OC3CC(C)(N)C(O)C(C)O3)c3ccc(c(Cl)c3)Oc3cc2cc(c3OC2OC(CO)C(O)C(O)C2OC2CC(C)(NCc3ccc(Oc4ccc([N+](=O)[O-])cc4)cc3)C(O)C(C)O2)Oc2ccc(cc2Cl)C1O (centres unmarked) [Compound 57] | 0.046 mg/kg/2 | ≤ 0.06 | ≤ 0.06 | ≤ 0.06 | 0.5 (≈ 0.275 µM) | ≤ 0.06 | 0.5 (≈ 0.275 µM) | 0.054 | 0.041 | ≤ 0.06 | 0.5 (≈ 0.275 µM) | 2 (≈ 1.1 µM) | 0.5 (≈ 0.275 µM) | 0.35 | 0.041 | ≤ 0.06 | ≤ 0.06 | 0.5 (≈ 0.275 µM) | 1 (≈ 0.55 µM) | ≤ 0.06 | MIC [26]: 8 µg/mL (≈ 4.4 µM) |
| CNC(CC(C)C)C(=O)NC1C(=O)NC(CC(N)=O)C(=O)NC2C(=O)NC3C(=O)NC(C(=O)NC(C(=O)O)c4cc(O)cc(O)c4-c4cc3ccc4O)C(OC3CC(C)(N)C(O)C(C)O3)c3ccc(c(Cl)c3)Oc3cc2cc(c3OC2OC(CO)C(O)C(O)C2OC2CC(C)(NCc3cccc4c3OCO4)C(O)C(C)O2)Oc2ccc(cc2Cl)C1O (centres unmarked) [Compound 58] | – | ≤ 0.06 | ≤ 0.06 | ≤ 0.06 | ≤ 0.06 | – | 0.5 (≈ 0.29 µM) | – | – | 0.5 (≈ 0.29 µM) | 8 (≈ 4.63 µM) | 0.4 (≈ 0.232 µM) | 4 (≈ 2.32 µM) | 5.7 | 0.76 | ≤ 0.06 | ≤ 0.06 | 1 (≈ 0.579 µM) | 8 (≈ 4.63 µM) | ≤ 0.06 | MIC [18]: 128 µg/mL (≈ 74.1 µM); MIC [19]: 128 µg/mL (≈ 74.1 µM); MIC [3]: ≤ 0.06 µg/mL; MIC [26]: 4 µg/mL (≈ 2.32 µM); MIC [28]: 55 µg/mL (≈ 31.9 µM) |
